Results from patent US20200268720A1, “METHODS OF USE OF A CLASS IIA HDAC INHIBITOR” (GlaxoSmithKline LLC, priority 2016, published 2020).

System: MMTV-PyMT tumor transplants
Assay: Orthotopic transplant of MMTV-PyMT tumor pieces into wild-type FVBN or athymic nude Foxn1nu mice
Type: in vivo, mouse
Details: treated for 20 days
Method: Two transplant experiments were performed where tumors were extracted from MMTV-PyMT mice and 50-100 mm^3 pieces were inserted into the 4th mammary fat pad of either wild-type FVBN mice or athymic nude Foxn1nu mice. Five days after implant mice were randomly placed into treatment groups and treated as indicated.

## CC(=O)O[C@H]1C(=O)[C@@]2(C)[C@H]([C@H](OC(=O)c3ccccc3)[C@]3(O)C[C@H](OC(=O)[C@H](O)[C@@H](NC(=O)c4ccccc4)c4ccccc4)C(C)=C1C3(C)C)[C@]1(OC(C)=O)CO[C@@H]1C[C@@H]2O [paclitaxel, 5β,20-epoxy-1,2α,4,7β,10β,13α-hexa-hydroxytax-11-en-9-one 4,10-diacetate 2-benzoate 13-ester with (2R,3S)—N-benzoyl-3-phenylisoserine, reference compound]
  transplant growth in T cell deficient athymic nude (Foxn1nu) recipient mice: efficacious
